Data taken from ChEMBL document CHEMBL2434896, “Carbonic anhydrase inhibitors. Synthesis of heterocyclic 4-substituted pyridine-3-sulfonamide derivatives and their inhibition of the human cytosolic isozymes I and II and transmembrane tumor-associated isozymes IX and XII” (Eur J Med Chem, 2013).
Active and inactive are the calls of the source. The rule behind the calls is not given here.

Assays:
[1] = tested on: IGROV-1; assay: Growth inhibition of human IGROV1 cells at 10 uM after 48 hrs by sulforhodamine B assay; type: functional; details: IGROV-1, 48 h, read-out: GI
[2] = tested on: HCT-15; assay: Growth inhibition of human HCT15 cells at 10 uM after 48 hrs by sulforhodamine B assay; type: functional
[3] = tested on: Hs-578T; assay: Growth inhibition of human Hs 578T cells at 10 uM after 48 hrs by sulforhodamine B assay; type: functional
[4] = tested on: NCI-H23; assay: Growth inhibition of human NCI-H23 cells at 10 uM after 48 hrs by sulforhodamine B assay; type: functional
[5] = Growth inhibition of human EKVX cells at 10 uM after 48 hrs by sulforhodamine B assay; type: functional; details: read-out: GI
[6] = tested on: HCC 2998; assay: Growth inhibition of human HCC2998 cells at 10 uM after 48 hrs by sulforhodamine B assay; type: functional
[7] = tested on: SF-268; assay: Growth inhibition of human SF268 cells at 10 uM after 48 hrs by sulforhodamine B assay; type: functional
[8] = tested on: PC-3; assay: Growth inhibition of human PC3 cells at 10 uM after 48 hrs by sulforhodamine B assay; type: functional; details: PC-3, 48 h, read-out: GI
[9] = tested on: HOP-62; assay: Growth inhibition of human HOP62 cells at 10 uM after 48 hrs by sulforhodamine B assay; type: functional
[10] = tested on: SN12C; assay: Growth inhibition of human SN12C cells at 10 uM after 48 hrs by sulforhodamine B assay; type: functional
[11] = tested on: BT-549; assay: Growth inhibition of human BT549 cells at 10 uM after 48 hrs by sulforhodamine B assay; type: functional
[12] = tested on: SF-295; assay: Growth inhibition of human SF295 cells at 10 uM after 48 hrs by sulforhodamine B assay; type: functional; details: SF-295, 48 h, read-out: GI
[13] = tested on: NCI-H226; assay: Growth inhibition of human NCI-H226 cells at 10 uM after 48 hrs by sulforhodamine B assay; type: functional
[14] = tested on: 786-0; assay: Growth inhibition of human 786-0 cells at 10 uM after 48 hrs by sulforhodamine B assay; type: functional
[15] = tested on: Malme-3M; assay: Growth inhibition of human MALME-3M cells at 10 uM after 48 hrs by sulforhodamine B assay; type: functional; details: read-out: GI
[16] = tested on: KM12; assay: Growth inhibition of human KM12 cells at 10 uM after 48 hrs by sulforhodamine B assay; type: functional
[17] = tested on: SNB-19; assay: Growth inhibition of human SNB19 cells at 10 uM after 48 hrs by sulforhodamine B assay; type: functional
[18] = tested on: OVCAR-3; assay: Growth inhibition of human OVCAR3 cells at 10 uM after 48 hrs by sulforhodamine B assay; type: functional
[19] = tested on: M14; assay: Growth inhibition of human M14 cells at 10 uM after 48 hrs by sulforhodamine B assay; type: functional
[20] = tested on: SK-MEL-5; assay: Growth inhibition of human SK-MEL-5 cells at 10 uM after 48 hrs by sulforhodamine B assay; type: functional; details: SK-MEL-5, 48 h, read-out: GI
[21] = tested on: MCF7; assay: Growth inhibition of human MCF7 cells at 10 uM after 48 hrs by sulforhodamine B assay; type: functional
[22] = tested on: SF-539; assay: Growth inhibition of human SF539 cells at 10 uM after 48 hrs by sulforhodamine B assay; type: functional; details: SF-539, 48 h, read-out: GI
[23] = tested on: COLO 205; assay: Growth inhibition of human COLO205 cells at 10 uM after 48 hrs by sulforhodamine B assay; type: functional; details: COLO 205, 48 h, read-out: GI
[24] = tested on: OVCAR-8; assay: Growth inhibition of human OVCAR8 cells at 10 uM after 48 hrs by sulforhodamine B assay; type: functional
[25] = tested on: UACC-257; assay: Growth inhibition of human UACC257 cells at 10 uM after 48 hrs by sulforhodamine B assay; type: functional
[26] = tested on: RPMI-8226; assay: Growth inhibition of human RPMI8226 cells at 10 uM after 48 hrs by sulforhodamine B assay; type: functional; details: RPMI-8226, 48 h, read-out: GI
[27] = tested on: SK-OV-3; assay: Growth inhibition of human SKOV3 cells at 10 uM after 48 hrs by sulforhodamine B assay; type: functional; details: SK-OV-3, 48 h, read-out: GI
[28] = tested on: NCI-H522; assay: Growth inhibition of human NCI-H522 cells at 10 uM after 48 hrs by sulforhodamine B assay; type: functional
[29] = tested on: U-251; assay: Growth inhibition of human U251 cells at 10 uM after 48 hrs by sulforhodamine B assay; type: functional; details: U-251, 48 h, read-out: GI
[30] = tested on: DU-145; assay: Growth inhibition of human DU145 cells at 10 uM after 48 hrs by sulforhodamine B assay; type: functional
[31] = tested on: HT-29; assay: Growth inhibition of human HT-29 cells at 10 uM after 48 hrs by sulforhodamine B assay; type: functional; details: HT-29, 48 h, read-out: GI
[32] = tested on: NCI/ADR-RES; assay: Growth inhibition of human NCI-ADR-RES cells at 10 uM after 48 hrs by sulforhodamine B assay; type: functional
[33] = tested on: OVCAR-5; assay: Growth inhibition of human OVCAR5 cells at 10 uM after 48 hrs by sulforhodamine B assay; type: functional; details: OVCAR-5, 48 h, read-out: GI
[34] = tested on: LOX IMVI; assay: Growth inhibition of human LOXIMVI cells at 10 uM after 48 hrs by sulforhodamine B assay; type: functional; details: read-out: GI
[35] = tested on: UO-31; assay: Growth inhibition of human UO31 cells at 10 uM after 48 hrs by sulforhodamine B assay; type: functional; details: UO-31, 48 h, read-out: GI
[36] = tested on: SNB-75; assay: Growth inhibition of human SNB75 cells at 10 uM after 48 hrs by sulforhodamine B assay; type: functional
[37] = tested on: HL-60(TB); assay: Growth inhibition of human HL-60(TB) cells at 10 uM after 48 hrs by sulforhodamine B assay; type: functional
[38] = tested on: SK-MEL-2; assay: Growth inhibition of human SK-MEL-2 cells at 10 uM after 48 hrs by sulforhodamine B assay; type: functional
[39] = tested on: K562; assay: Growth inhibition of human K562 cells at 10 uM after 48 hrs by sulforhodamine B assay; type: functional
[40] = tested on: A498; assay: Growth inhibition of human A498 cells at 10 uM after 48 hrs by sulforhodamine B assay; type: functional
[41] = tested on: SW-620; assay: Growth inhibition of human SW620 cells at 10 uM after 48 hrs by sulforhodamine B assay; type: functional
[42] = tested on: NCI-H322M; assay: Growth inhibition of human NCI-H322M cells at 10 uM after 48 hrs by sulforhodamine B assay; type: functional; details: read-out: GI
[43] = tested on: HCT-116; assay: Growth inhibition of human HCT116 cells at 10 uM after 48 hrs by sulforhodamine B assay; type: functional
[44] = tested on: CAKI-1; assay: Growth inhibition of human CAKI-1 cells at 10 uM after 48 hrs by sulforhodamine B assay; type: functional; details: CAKI-1, 48 h, read-out: GI
[45] = tested on: CCRF-CEM; assay: Growth inhibition of human CCRF-CEM cells at 10 uM after 48 hrs by sulforhodamine B assay; type: functional; details: read-out: GI
[46] = tested on: A549; assay: Growth inhibition of human A549/ATCC cells at 10 uM after 48 hrs by sulforhodamine B assay; type: functional; details: A549, 48 h, read-out: GI
[47] = tested on: SR; assay: Growth inhibition of human SR cells at 10 uM after 48 hrs by sulforhodamine B assay; type: functional
[48] = tested on: OVCAR-4; assay: Growth inhibition of human OVCAR4 cells at 10 uM after 48 hrs by sulforhodamine B assay; type: functional
[49] = tested on: MOLT-4; assay: Growth inhibition of human MOLT4 cells at 10 uM after 48 hrs by sulforhodamine B assay; type: functional; details: MOLT-4, 48 h, read-out: GI
[50] = tested on: UACC-62; assay: Growth inhibition of human UACC62 cells at 10 uM after 48 hrs by sulforhodamine B assay; type: functional
[51] = tested on: MDA-MB-231; assay: Growth inhibition of human MDA-MB-231 cells at 10 uM after 48 hrs by sulforhodamine B assay; type: functional
[52] = target: Carbonic anhydrase 9 (Homo sapiens, UniProt Q16790); assay: Inhibition of human carbonic anhydrase 9 after 15 mins by stopped flow CO2 hydration assay
[53] = tested on: ACHN; assay: Growth inhibition of human ACHN cells at 10 uM after 48 hrs by sulforhodamine B assay; type: functional
[54] = tested on: T47D; assay: Growth inhibition of human T47D cells at 10 uM after 48 hrs by sulforhodamine B assay; type: functional; details: read-out: GI
[55] = tested on: TK-10; assay: Growth inhibition of human TK10 cells at 10 uM after 48 hrs by sulforhodamine B assay; type: functional; details: TK-10, 48 h, read-out: GI
[56] = tested on: NCI-H460; assay: Growth inhibition of human NCI-H460 cells at 10 uM after 48 hrs by sulforhodamine B assay; type: functional
[57] = tested on: SK-MEL-28; assay: Growth inhibition of human SK-MEL-28 cells at 10 uM after 48 hrs by sulforhodamine B assay; type: functional, cell-based
[58] = tested on: MDA-MB-435; assay: Growth inhibition of human MDA-MB-435 cells at 10 uM after 48 hrs by sulforhodamine B assay; type: functional

## CCCCc1c(C)nn(-c2ccncc2S(N)(=O)=O)c1C
[1]
  inhibition of growth at 10 µM: 3%
[2]
  growth inhibition (GI): inactive
[3]
  growth inhibition (GI): inactive
[4]
  growth inhibition (GI): inactive
[5]
  inhibition of growth at 10 µM: 6%
[6]
  growth inhibition (GI): inactive
[7]
  growth inhibition (GI): inactive
[8]
  inhibition of growth at 10 µM: 8%
[9]
  growth inhibition (GI): inactive
[10]
  growth inhibition (GI): inactive
[11]
  growth inhibition (GI): inactive
[12]
  inhibition of growth at 10 µM: 8%
[13]
  growth inhibition (GI): inactive
[14]
  growth inhibition (GI): inactive
[15]
  inhibition of growth at 10 µM: 13%
[16]
  growth inhibition (GI): inactive
[17]
  growth inhibition (GI): inactive
[18]
  growth inhibition (GI): inactive
[19]
  growth inhibition (GI): inactive
[20]
  inhibition of growth at 10 µM: 16%
[21]
  growth inhibition (GI): inactive
[22]
  inhibition of growth at 10 µM: 3%
[23]
  inhibition of growth at 10 µM: 1%
[24]
  growth inhibition (GI): inactive
[25]
  growth inhibition (GI): inactive
[26]
  inhibition of growth at 10 µM: 27%
[27]
  inhibition of growth at 10 µM: 2%
[28]
  growth inhibition (GI): inactive
[29]
  inhibition of growth at 10 µM: 8%
[30]
  growth inhibition (GI): inactive
[31]
  inhibition of growth at 10 µM: 15%
[32]
  growth inhibition (GI): inactive
[33]
  inhibition of growth at 10 µM: 8%
[34]
  inhibition of growth at 10 µM: 2%
[35]
  inhibition of growth at 10 µM: 23%
[36]
  growth inhibition (GI): inactive
[37]
  growth inhibition (GI): inactive
[38]
  growth inhibition (GI): inactive
[39]
  growth inhibition (GI): inactive
[40]
  growth inhibition (GI): inactive
[41]
  growth inhibition (GI): inactive
[42]
  inhibition of growth at 10 µM: 7%
[43]
  growth inhibition (GI): inactive
[44]
  inhibition of growth at 10 µM: 5%
[45]
  inhibition of growth at 10 µM: 8%
[46]
  inhibition of growth at 10 µM: 17%
[47]
  growth inhibition (GI): inactive
[48]
  growth inhibition (GI): inactive
[49]
  inhibition of growth at 10 µM: 17%
[50]
  growth inhibition (GI): inactive
[51]
  growth inhibition (GI): inactive
[52]
  Ki: 48.6 nM
[53]
  growth inhibition (GI): inactive
[54]
  inhibition of growth at 10 µM: 11%
[55]
  inhibition of growth at 10 µM: 9%
[56]
  growth inhibition (GI): inactive
[57]
  growth inhibition (GI): inactive
[58]
  growth inhibition (GI): inactive
